Article PMC12621184, “Synthesis and Pharmacological Characterization of Nociceptin/Orphanin FQ Dimeric Ligands” (Journal of Medicinal Chemistry, 2025)
Bridge positions count the residues as written; N and C are the ends. Peptide text beside a SMILES is read from it. I, II: the chains in the order shown.

System: loss of the righting reflex (RR) in NOP(−/−) mice
Assay: Loss of the righting reflex assay in NOP(−/−) mice
Type: in vivo, mouse
Settings: 10 nmol, icv; N = 7–9 per group
Procedure: All of the experimental procedures adopted in the in vivo studies comply with the European Directive 2010/63/EU on protecting animals used for scientific purposes and Italian Legislative Decree no. 26 of March 4, 2014. These experiments were approved by the Animal Welfare Body of the University of Ferrara and by the Ministry of Health (authorization number 677/2024-PR). In vivo studies have been reported following ARRIVE guidelines. All experiments were conducted with mice bred and housed in the University of Ferrara’s animal facility under specific pathogen-free conditions. All mice were housed in cages with individual ventilation, with a constant temperature of 21 °C, 60% humidity, and a 12 h light/dark cycle. Food and water were provided ad libitum. […] When the animals lost RR, they were placed in a plastic cage, and the time was recorded by an expert observer, blind to drug treatments and/or genotype. […]
Concentration-response curves to agonists were analyzed by a four-parameter logistic nonlinear regression model: Effect = baseline + (E max – baseline)/(1 + 10^((logEC50–log[ligand])slope)). […] Experimental data were expressed as mean ± sem of at least 5 experiments. Potency values were expressed as the mean and CL95%. In vitro E max values were analyzed by one-way ANOVA, while in vivo latency data were evaluated by one-way ANOVA followed by Dunnett’s post hoc test. […]

With `C[C@H](NC(=O)CNC(=O)[C@@H](NC(=O)[C@H](Cc1ccccc1)NC(=O)CNC(=O)CNC(=O)[C@@H](N)Cc1ccccc1)[C@@H](C)O)C(=O)N[C@@H](CCCNC(=N)N)C(=O)N[C@@H](CCCCN)C(=O)N[C@@H](CO)C(=O)N[C@@H](C)C(=O)N[C@@H](CCCNC(=N)N)C(=O)N[C@@H](CCCCN)C(=O)N[C@@H](CSSC[C@H](NC(=O)[C@H](CCCCN)NC(=O)[C@H](CCCNC(=N)N)NC(=O)[C@H](C)NC(=O)[C@H](CO)NC(=O)[C@H](CCCCN)NC(=O)[C@H](CCCNC(=N)N)NC(=O)[C@H](C)NC(=O)CNC(=O)[C@@H](NC(=O)[C@H](Cc1ccccc1)NC(=O)CNC(=O)CNC(=O)[C@@H](N)Cc1ccccc1)[C@@H](C)O)C(=O)N[C@@H](C)C(=O)N[C@@H](CC(N)=O)C(=O)N[C@@H](CCC(N)=O)C(N)=O)C(=O)N[C@@H](C)C(=O)N[C@@H](CC(N)=O)C(=O)N[C@@H](CCC(N)=O)C(N)=O` [1h, [[Cys^14]N/OFQ-NH2]2] (I: H-FGGFTGARKSARKCANQ-NH2 / II: H-FGGFTGARKSARKCANQ-NH2; disulfide I:14-II:14; N-terminus assumed) the “loss of the RR in NOP(−/−) mice (in words)” value was “completely inactive”.
